Data taken from patent publication US7414047B2, “Piperazinyl and diazapanyl benzamides and benzthioamides” (Janssen Pharmaceutica N.V., priority 2002, dated 2008).
Where a name gives a salt, the structure may show the parent alone. Read-outs that look alike come from different tables or passages of the source.

Biological target: T1, human histamine H3 receptor (Homo sapiens, UniProt Q9Y5N1)
T1 construct: One microgram of supercoiled H3 receptor cDNA was added to the cells and mixed; expressed in transfected cells; membranes prepared from cell pellets
T1 sequence (Q9Y5N1 whole entry): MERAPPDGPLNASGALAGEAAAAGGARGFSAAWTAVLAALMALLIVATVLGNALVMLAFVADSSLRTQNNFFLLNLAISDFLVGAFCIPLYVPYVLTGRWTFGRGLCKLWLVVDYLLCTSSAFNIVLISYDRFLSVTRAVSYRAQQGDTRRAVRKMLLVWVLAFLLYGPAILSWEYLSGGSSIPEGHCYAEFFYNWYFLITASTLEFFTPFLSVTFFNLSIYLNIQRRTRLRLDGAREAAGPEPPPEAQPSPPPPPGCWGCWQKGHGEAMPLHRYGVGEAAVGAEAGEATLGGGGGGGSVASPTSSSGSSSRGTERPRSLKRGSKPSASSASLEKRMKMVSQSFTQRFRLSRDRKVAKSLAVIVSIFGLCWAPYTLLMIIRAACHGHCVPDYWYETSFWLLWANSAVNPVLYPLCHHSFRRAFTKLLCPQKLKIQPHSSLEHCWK
Experiment: {3H}-N-methylhistamine binding
Method: Transfection of Cells with Human Histamine Receptor
A 10 cm tissue culture dish with a confluent monolayer of SK-N-MC cells was split two days prior to transfection. Using sterile technique the media was removed and the cells were detached from the dish by the addition of trypsin. One fifth of the cells were then placed onto a new 10 cm dish. Cells were grown in a 37° C. incubator with 5% CO2 in Minimal Essential Media Eagle with 10%. Fetal Bovine Serum. After two days cells were approximately 80% confluent. These were removed from the dish with trypsin and pelleted in a clinical centrifuge. The pellet was then re-suspended in 400 μL complete media and transferred to an electroporation cuvette with a 0.4 cm gap between the electrodes. One microgram of supercoiled H3 receptor cDNA was added to the cells and mixed. The voltage for the electroporation was set at 0.25 kV, the capacitance was set at 960 μF. After electroporation the cells were diluted into 10 mL complete media and plated onto four 10 cm dishes. Because of the variability in the efficiency of electroporation, four different concentrations of cells were plated. The ratios used were; 1:20, 1:10, 1:5, with the remainder of the cells being added to the fourth dish. […] After 10 days dishes were analyzed for surviving colonies of cells. Dishes with well-isolated colonies were used. Cells from individual colonies were isolated and tested. SK-N-MC cells were used because they give efficient coupling for inhibition of adenylate cyclase. The clones that gave the most robust inhibition of adenylate cyclase in response to histamine were used for further study.
{^3H}-N-methylhistamine Binding
Cell pellets from histamine H3 receptor-expressing SK-N-MC cells were homogenized in 20 mM TrisHCl/0.5 mM EDTA. Supernatants from an 800 g spin were collected, recentrifuged at 30,000 g for 30 min. Pellets were re-homogenized in 50 mM Tris/5 mM EDTA (pH 7.4). […] Filters were dried, added to 4 mL scintillation cocktail and then counted on a liquid scintillation counter. Non-specific binding was defined with 10 μM histamine.

SMILES	Ki [nM]	Ki (membranes of histamine H3 receptor-expressing SK-N-MC cells, 0.8 nM {3H}-N-methylhistamine, 45 min at 25° C., […]) [nM]
CCC(C)N1CCN(C(=O)c2ccc(CN3CCCC(C(F)(F)F)C3)cc2)CC1 (centres unmarked) [Example 50, (4-sec-Butyl-piperazin-1-yl)-{4-(3-trifluoromethyl-piperidin-1-ylmethyl)-phenyl}-methanone dihydrochloride]	30	–
CN1CCN(C(=O)c2ccc(CN3CCCCC3)cc2)CC1 [Example 54, (4-Methyl-piperazin-1-yl)-(4-piperidin-1-ylmethyl-phenyl)-methanone dihydrochloride]	24	–
CCC(CC)N1CCN(C(=O)c2ccc(CN(C)C)cc2)CC1 [Example 46, (4-Dimethylaminomethyl-phenyl)-{4-(1-ethyl-propyl)-piperazin-1-yl}-methanone dihydrochloride]	2	–
CC(C)N1CCN(C(=O)c2cccc(CN3CCOCC3)c2)CC1 [Example 38, (4-Isopropyl-piperazin-1-yl)-(3-morpholin-4-ylmethyl-phenyl)-methanone]	180	–
CCC(C)N1CCN(C(=O)c2ccc(CN(C)C)cc2)CC1 (centres unmarked) [Example 24, (4-sec-Butyl-piperazin-1-yl)-(4-dimethylaminomethyl-phenyl)-methanone]	1.5	–
CC(C)N1CCN(C(=O)c2ccc(CNc3ccc(C(F)(F)F)cc3)cc2)CC1 [Example 34, (4-Isopropyl-piperazin-1-yl)-{4-{(4-trifluoromethyl-phenylamino)-methyl}-phenyl}-methanone]	68	–
CC(C)N1CCN(C(=O)c2ccc(CNc3cc(C(F)(F)F)ccn3)cc2)CC1 [Example 44, (4-Isopropyl-piperazin-1-yl)-{4-{4-trifluoromethyl-pyridin-2-ylamino)-methyl}-phenyl}-methanone dihydrochloride]	85	–
CCC(CC)N1CCN(C(=O)c2ccc(CN3CCOCC3)cc2)CC1 [Example 48, {4-(1-Ethyl-propyl)-piperazin-1-yl}-(4-morpholin-4-ylmethyl-phenyl)-methanone dihydrochloride]	1	–
CC(C)N1CCN(Cc2ccc(C(=O)N3CCN(C(C)C)CC3)cc2)CC1 [Example 35, (4-Isopropyl-piperazin-1-yl)-{4-(4-isopropyl-piperazin-1-ylmethyl)-phenyl}-methanone]	–	18
CCC(CC)N1CCN(C(=O)c2ccc(CN3CCCC(C(F)(F)F)C3)cc2)CC1 (centres unmarked) [Example 49, {4-(1-Ethyl-propyl)-piperazin-1-yl}-{4-(3-trifluoromethyl-piperidin-1-ylmethyl)-phenyl}-methanone dihydrochloride]	4	–
CCC(CC)N1CCN(C(=O)c2ccc(CN3CCCC3)cc2)CC1 [Example 26, {4-(1-Ethyl-propyl)-piperazin-1-yl}-(4-pyrrolidin-1-ylmethyl-phenyl)-methanone]	0.9	–
CCCCN1CCN(C(=O)c2ccc(CN3CCCC(C(F)(F)F)C3)cc2)CC1 (centres unmarked) [Example 36, (4-Butyl-piperazin-1-yl)-{4-(3-trifluoromethyl-piperidin-1-ylmethyl)-phenyl}-methanone]	12	–
CCN(CCOC)Cc1ccc(C(=O)N2CCN(C(C)C)CC2)cc1 [Example 69, (4-{[Ethyl-(2-methoxy-ethyl)-amino]-methyl}-phenyl)-(4-isopropyl-piperazin-1-yl)-methanone]	3	–
CCC(C)N1CCN(C(=O)c2ccc(CN3CCOCC3)cc2)CC1 (centres unmarked) [Example 51, (4-sec-Butyl-piperazin-1-yl)-(4-morpholin-4-ylmethyl-phenyl)-methanone dihydrochloride]	2	–
CCC(CC)N1CCN(C(=O)c2ccc(CNCc3ccccc3)cc2)CC1 [Example 20, {4-(Benzylamino-methyl)-phenyl}-{4-(1-ethyl-propyl)-piperazin-1-yl}-methanone]	2	–
CCCN(CCOC)Cc1ccc(C(=O)N2CCN(C(C)C)CC2)cc1 [Example 68, (4-Isopropyl-piperazin-1-yl)-(4-{[(2-methoxy-ethyl)-propyl-amino]-methyl}-phenyl)-methanone]	2	–
CC(C)N1CCN(C(=O)c2ccc(CNCc3ccccc3)cc2)CC1 [Example 58, {4-(Benzylamino-methyl)-phenyl}-(4-isopropyl-piperazin-1-yl)-methanone dihydrochloride]	3	–
